Reference: US20220340629A1, “Myosin Derived Peptides and Related Compounds with Anticoagulant Activities” (THE SCRIPPS RESEARCH INSTITUTE, priority 0001, published 2022)
Like-named read-outs stand apart in the source and are kept apart here. Values belong to the molecule of their own block, whether it stands above or below them. Non-standard residues stand in square brackets, D forms with d. Residues, ends and D or L forms follow the SMILES beside them. No end group written: not given here. *: point of attachment. Arachidoyl = CCCCCCCCCCCCCCCCCCCC(=O)*; NMeN = CN[C@@H](CC(N)=O)C(=O)O; Nle = CCCC[C@H](N)C(=O)O

How the values were obtained:
[1] = target: skeletal muscle myosin-supported prothrombin activation by factors Xa and Va (Homo sapiens, UniProt P00742); assay: Assay 1A: prothrombin activation by factor Xa/factor Va/myosin in purified system; type: biochemical, human factors Xa and Va; rabbit skeletal muscle myosin; conditions: purified system
skeletal muscle myosin-supported prothrombin activation by factors Xa and Va (Homo sapiens, UniProt P00742), sequence (P00742 41-179): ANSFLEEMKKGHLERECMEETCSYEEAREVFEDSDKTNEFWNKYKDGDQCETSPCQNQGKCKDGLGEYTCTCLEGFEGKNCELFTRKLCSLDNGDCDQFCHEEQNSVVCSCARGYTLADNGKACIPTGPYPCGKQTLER
skeletal muscle myosin-supported prothrombin activation by factors Xa and Va (Homo sapiens, UniProt P00742), sequence (P00742 235-488): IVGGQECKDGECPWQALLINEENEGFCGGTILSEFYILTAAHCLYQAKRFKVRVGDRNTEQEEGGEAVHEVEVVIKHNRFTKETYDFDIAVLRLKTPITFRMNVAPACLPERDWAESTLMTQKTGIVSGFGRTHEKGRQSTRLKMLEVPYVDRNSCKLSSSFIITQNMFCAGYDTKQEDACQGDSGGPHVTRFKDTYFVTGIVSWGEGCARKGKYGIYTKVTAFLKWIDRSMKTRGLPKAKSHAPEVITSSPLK
skeletal muscle myosin-supported prothrombin activation by factors Xa and Va (Homo sapiens, UniProt P00742), sequence (P12259 29-737 partner): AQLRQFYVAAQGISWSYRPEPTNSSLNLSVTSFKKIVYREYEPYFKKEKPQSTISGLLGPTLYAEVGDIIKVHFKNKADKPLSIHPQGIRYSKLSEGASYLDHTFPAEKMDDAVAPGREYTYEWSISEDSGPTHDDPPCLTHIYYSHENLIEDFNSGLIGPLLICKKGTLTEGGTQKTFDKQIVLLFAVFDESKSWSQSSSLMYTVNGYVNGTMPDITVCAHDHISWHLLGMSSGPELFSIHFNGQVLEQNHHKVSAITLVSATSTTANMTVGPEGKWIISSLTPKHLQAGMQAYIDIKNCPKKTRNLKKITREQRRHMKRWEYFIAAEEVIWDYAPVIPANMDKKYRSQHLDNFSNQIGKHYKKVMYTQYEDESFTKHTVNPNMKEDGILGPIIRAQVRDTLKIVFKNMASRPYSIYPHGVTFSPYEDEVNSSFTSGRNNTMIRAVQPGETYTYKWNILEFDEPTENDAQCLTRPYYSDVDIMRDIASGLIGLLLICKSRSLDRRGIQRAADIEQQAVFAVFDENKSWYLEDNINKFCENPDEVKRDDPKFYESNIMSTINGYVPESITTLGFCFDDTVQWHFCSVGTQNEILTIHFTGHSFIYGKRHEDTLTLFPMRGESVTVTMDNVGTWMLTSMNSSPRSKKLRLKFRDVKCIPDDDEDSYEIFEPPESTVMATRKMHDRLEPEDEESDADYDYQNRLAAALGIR
skeletal muscle myosin-supported prothrombin activation by factors Xa and Va (Homo sapiens, UniProt P00742), sequence (P12259 1574-2224 partner): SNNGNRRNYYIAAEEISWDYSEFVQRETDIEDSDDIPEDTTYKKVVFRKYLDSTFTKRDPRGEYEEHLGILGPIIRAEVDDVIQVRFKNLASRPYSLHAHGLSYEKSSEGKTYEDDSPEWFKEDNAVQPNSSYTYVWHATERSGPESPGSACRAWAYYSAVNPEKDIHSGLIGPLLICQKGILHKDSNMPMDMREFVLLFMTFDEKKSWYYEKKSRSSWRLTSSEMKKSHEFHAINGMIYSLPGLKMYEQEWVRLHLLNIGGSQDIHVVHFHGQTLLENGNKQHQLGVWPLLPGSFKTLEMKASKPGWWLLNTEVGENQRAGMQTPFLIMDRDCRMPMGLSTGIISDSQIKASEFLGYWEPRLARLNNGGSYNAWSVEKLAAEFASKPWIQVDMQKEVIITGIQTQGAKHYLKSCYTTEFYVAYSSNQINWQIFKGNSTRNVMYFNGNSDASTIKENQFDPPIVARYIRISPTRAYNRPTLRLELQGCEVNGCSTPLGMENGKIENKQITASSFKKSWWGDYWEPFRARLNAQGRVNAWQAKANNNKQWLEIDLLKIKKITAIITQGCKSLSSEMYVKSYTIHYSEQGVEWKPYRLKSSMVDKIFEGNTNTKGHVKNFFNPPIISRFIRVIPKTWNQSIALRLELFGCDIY

[2] = target: phospholipid-supported prothrombin activation by factors Xa and Va (Homo sapiens, UniProt P00742); assay: Assay 1C: phospholipid vesicle (PC/PS 80%/20%)-supported prothrombin activation; type: biochemical
phospholipid-supported prothrombin activation by factors Xa and Va, sequence (P00742 41-179 limits assumed): as the sequence (P00742 41-179) above
phospholipid-supported prothrombin activation by factors Xa and Va, sequence (P00742 235-488 limits assumed): as the sequence (P00742 235-488) above

[3] = Metabolite identification after incubation in mouse plasma; type: in vitro ADME; conditions: incubated in mouse plasma, FIG. 8
[4] = tested on: thrombin generation in human platelet poor plasma with skeletal muscle myosin; assay: Assay 2A: thrombin generation, recalcification of human platelet poor plasma + myosin; type: biochemical; conditions: human platelet poor plasma 30%, myosin 50 nM, CaCl2 10 mmol/L; read-out: 2A (recalcification +myosin)
Outline: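 Pooled normal human platelet-poor plasma (30%) preincubated 5 min at 37° C with 50 nM skeletal muscle myosin and peptide in DMSO. Coagulation triggered with 10 mmol/L CaCl2 plus fluorogenic Z-Gly-Gly-Arg-AMC; thrombin generation followed 25 min (ex 360/em 460 nm). IC50 = peptide concentration giving 50% inhibition of thrombin generation.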

[5] = tested on: thrombin generation in human whole blood; assay: Assay 4: thrombin generation in recalcified human whole blood; type: biochemical
Method: In addition to purified protein system and human plasma, assays using whole blood (Assay 4) were also performed to examine anti-coagulant activities of the peptides and derivative compounds. In these assays, freshly drawn anticoagulated human whole blood (80 μL aliquot) was incubated with peptide in DMSO or DMSO alone (control) for 5 min at 37° C. Then, fluorogenic thrombin substrate solution (Z-Gly-Gly-Arg-AMC) (I-1140) with 10 mmol/L CaCl2 (final) alone was added to the reaction mixture (total 110 μl) in 96 well plate to initiate coagulation. Thrombin generation was followed continuously for 25 min using SPECTRAmax GEMINI XS fluorometer (Molecular Devices, Sunnyvale, Calif.) with excitation and emission wavelengths set at 360 and 460 nm, respectively. The first derivative of fluorescence versus time was used to produce thrombin generation curves with the correction for substrate consumption and inner filter effect. IC50 were determined using a curve fit program in Prism7.0 (GraphPad Software, San Diego, Calif.).

[6] = tested on: skeletal muscle myosin-supported prothrombin activation by factors Xa and Va; assay: Assay 1A: prothrombin activation by factor Xa/factor Va/myosin in purified system; type: biochemical, human factors Xa and Va; rabbit skeletal muscle myosin
[7] = target: T1, prothrombin activation by factor Xa and factor Va (no myosin) (Homo sapiens, UniProt P00742); assay: Assay 1B: prothrombin activation by factor Xa/factor Va, no myosin; type: biochemical; conditions: purified system, no myosin
T1 construct: the same reaction mixture of factor Xa, factor Va and prothrombin
T1 sequence (P00742 41-179 limits assumed): as the sequence (P00742 41-179) above
T1 sequence (P00742 235-488 limits assumed): as the sequence (P00742 235-488) above

[8] = tested on: thrombin generation in human plasma; assay: Thrombin generation assay in pooled normal human plasma (Examples 3 and 4); type: biochemical; conditions: screened at 25 μM, FIG. 3A
Method: Thrombin generation assay in pooled human plasma: The effect of synthetic peptides on thrombin generation in pooled normal human plasma (George King Bio-medical, Inc., Overland Park, KS) was tested as described (1,11). Briefly, normal human plasma (30 μl) was mixed with CTI, followed by the addition of peptide. Then, tissue factor (TF) (Innovin) (0.5[…] pM final) containing 30 mM Ca^++ in TBSA with fluorogenic thrombin substrate solution (I-1140) (Bachem Americas, Inc., Torrance, Calif.) were added to the plasma to initiate coagulation activation. The first derivative of the time course data for substrate hydrolysis yielded the thrombin generation curve, allowing measurement of thrombin generation during the initiation, propagation and termination phases of thrombin generation and the value for peak thrombin generated.

[9] = target: T2, Human factor Xa (human, UniProt P00742 41-179; P00742 235-488, limits assumed); assay: cell-based or functional assay
T2 sequence (P00742 41-179 limits assumed, form in doubt, chain 1 of 2): as the sequence (P00742 41-179) above
T2 sequence (P00742 235-488 limits assumed, form in doubt, chain 2 of 2): as the sequence (P00742 235-488) above

[10] = target: T2, Human factor Xa; assay: cell-based or functional assay; remark: listed apart in the source
[11] = skeletal muscle myosin, factor Va 5 nM, factor Xa 0.2 nM, prothrombin 0.75 μM, 10 min, read-out: 1A (+myosin)

IC50 ([1]; prothrombin activation with myosin, read-out: 1A (+ myosin) IC50): 1.99 µM | IC50 ([6]; dose-dependency assays, FIG. 2A, myosin 2 nM, read-out: IC50, inhibition of myosin-supported prothrombin activation): 2.3 µM | IC50 [7]: 10.8 µM | IC50 ([2]; PC/PS vesicles 4 μM, read-out: IC50, phospholipid vesicles containing 20% phosphatidylserine-supported prothrombin activation): 104 µM | IC50 ([2]; purified system, phospholipid vesicles, read-out: 1C (+phospholipid)): 7.5 µM
Molecule: CC[C@H](C)[C@H](NC(=O)[C@H](C)NC(=O)[C@@H](N)CCC(=O)O)C(=O)N[C@@H](Cc1ccccc1)C(=O)N[C@@H](CS)C(=O)N[C@H](C(=O)N[C@@H](CCC(N)=O)C(=O)N[C@@H](Cc1ccc(O)cc1)C(=O)N[C@@H](CC(N)=O)C(=O)N[C@H](C(=O)N[C@@H](CCCNC(=N)N)C(=O)N[C@@H](CO)C(=O)N[C@@H](Cc1ccccc1)C(=O)N[C@@H](CCSC)C(=O)N[C@@H](CC(N)=O)C(=O)N[C@H](C(=O)N[C@@H](CCCCN)C(=O)N[C@@H](Cc1c[nH]cn1)C(=O)N[C@@H](Cc1c[nH]c2ccccc12)C(=O)N1CCC[C@H]1C(=O)N[C@@H](Cc1c[nH]c2ccccc12)C(=O)N[C@@H](CCSC)C(=O)N[C@@H](CCCCN)C(=O)N[C@@H](CC(C)C)C(=O)N[C@@H](Cc1ccccc1)C(=O)N[C@@H](Cc1ccccc1)C(=O)N[C@@H](CCCCN)C(=O)N[C@H](C(=O)N[C@@H](CCCCN)C(=O)N1CCC[C@H]1C(=O)N[C@@H](CC(C)C)C(=O)N[C@@H](CC(C)C)C(=O)N[C@@H](CCCCN)C(=O)N[C@@H](CO)C(=O)N[C@@H](C)C(=O)N[C@@H](CCC(=O)O)C(=O)N[C@H](C(=O)N[C@@H](CCC(=O)O)C(=O)N[C@@H](CCCCN)C(=O)N[C@@H](CCC(=O)O)C(N)=O)[C@@H](C)O)[C@@H](C)CC)C(C)C)[C@@H](C)CC)[C@@H](C)CC [HC815-854] (H-EAIFCIQYNIRSFMNVKHWPWMKLFFKIKPLLKSAETEKE-NH2)
inhibition of myosin-supported prothrombin activation at 5 μM ([6]; peptide 5 μM, FIG. 1A): inhibitory, to varying degrees | inhibition of myosin-supported prothrombin activation at 100 μM ([6]; peptide 100 μM, FIG. 1A): inhibited | inhibition of thrombin generation in human plasma [8]: significantly inhibited

IC50 [4]: 1.7 µM | IC50 ([5]; CaCl2 10 mmol/L, read-out: 4 (recalcification)): 0.3 to 4 µM
Molecule: CCCCCCCCCCCCCCCCCCCC(=O)NCCCC[C@H](NC(=O)[C@H](CCCNC(=N)N)NC(=O)[C@@H](NC(=O)[C@H](CC(N)=O)NC(=O)[C@H](Cc1ccc(O)cc1)NC(=O)[C@H](CCC(N)=O)NC(=O)[C@@H](NC(=O)[C@H](CO)NC(=O)[C@H](Cc1ccccc1)NC(=O)[C@@H](NC(=O)[C@H](C)N)[C@@H](C)CC)[C@@H](C)CC)[C@@H](C)CC)C(=O)N[C@@H](Cc1ccccc1)C(=O)N[C@@H](CCCC)C(=O)N(C)[C@@H](CC(N)=O)C(=O)N[C@H](C(=O)N[C@@H](CCCCN)C(=O)N[C@@H](Cc1c[nH]cn1)C(=O)N[C@@H](Cc1c[nH]c2ccccc12)C(=O)N1CCC[C@H]1C(=O)N[C@@H](Cc1c[nH]c2ccccc12)C(=O)N[C@@H](CCCC)C(=O)N[C@@H](CCCCN)C(=O)N[C@@H](CCCCN)C(=O)N[C@@H](CCCCN)C(=O)N[C@@H](CCCCN)C(=O)N[C@@H](CCCCN)C(N)=O)C(C)C [SL-1504-074A, AIFSIQYNIRXF(Nle)(N-MeN)VKHWPW(Nle)KKKKK] (H-AIFSIQYNIRK(Arachidoyl)F[Nle][NMeN]VKHWPW[Nle]KKKKK-NH2)

IC50, inhibition of myosin-supported prothrombin activation by purified factor Xa, factor Va and Ca++ ions [9]: 1.2 µM | IC50, Assay 1A (+myosin): prothrombin activation by factor Xa/factor Va/myosin in purified system [10]: 1.3 µM
Molecule: ARCRGFLARVEYQRMVERREAIFCIQYNIRSFMNVKHWPW-NH2 (cysteine pairing not given here, Synthetic 40-mer; also called HC061) [Peptide HC796-835 (human skeletal muscle myosin heavy chain MYH2 residues 796-835)]

More lines, now with the values behind:

Molecule: CC[C@H](C)[C@H](NC(=O)[C@H](C)N)C(=O)N[C@@H](Cc1ccccc1)C(=O)N[C@@H](CS)C(=O)N[C@H](C(=O)N[C@@H](CCC(N)=O)C(=O)N[C@@H](Cc1ccc(O)cc1)C(=O)N[C@@H](CC(N)=O)C(=O)N[C@H](C(=O)N[C@@H](CCCNC(=N)N)C(=O)N[C@@H](CO)C(=O)N[C@@H](Cc1ccccc1)C(=O)N[C@@H](CCSC)C(=O)N[C@@H](CC(N)=O)C(=O)N[C@H](C(=O)N[C@@H](CCCCN)C(=O)N[C@@H](Cc1c[nH]cn1)C(=O)N[C@@H](Cc1c[nH]c2ccccc12)C(=O)N1CCC[C@H]1C(=O)N[C@@H](Cc1c[nH]c2ccccc12)C(=O)N[C@@H](CCSC)C(=O)N[C@@H](CCCCN)C(N)=O)C(C)C)[C@@H](C)CC)[C@@H](C)CC [HC060] (H-AIFCIQYNIRSFMNVKHWPWMK-NH2)
IC50 [1, 11]: 1.1 µM | 1C (+phospholipid) ([2]; phospholipid vesicle 4 μM, PS 20%/PC 80%, result in words): No activity | sites of protease cleavage identified from metabolite identification [3]: six

Molecule: CCCC[C@H](NC(=O)[C@H](Cc1c[nH]c2ccccc12)NC(=O)[C@@H]1CCCN1C(=O)[C@H](Cc1c[nH]c2ccccc12)NC(=O)[C@H](Cc1c[nH]cn1)NC(=O)[C@H](CCCCN)NC(=O)[C@@H](NC(=O)[C@H](CC(N)=O)NC(=O)[C@H](CCCC)NC(=O)[C@H](Cc1ccccc1)NC(=O)[C@H](CO)NC(=O)[C@H](CCCNC(=N)N)NC(=O)[C@@H](NC(=O)[C@H](CC(N)=O)NC(=O)[C@H](Cc1ccc(O)cc1)NC(=O)[C@H](CCC(N)=O)NC(=O)[C@@H](NC(=O)[C@@H](NC(=O)[C@H](Cc1ccccc1)NC(=O)[C@@H](NC(=O)[C@H](C)N)[C@@H](C)CC)[C@@H](C)O)[C@@H](C)CC)[C@@H](C)CC)C(C)C)C(=O)N[C@@H](CCCCN)C(N)=O [HC179] (H-AIFTIQYNIRSF[Nle]NVKHWPW[Nle]K-NH2; N-terminus assumed)
IC50 [1, 11]: 0.4 µM | IC50 [4]: 8.3 µM | 4 (recalcification), result in words ([5]; result in words): No activity
